What was measured:
monoamine transporter = monoamine transporter (UniProt Q27963); details: membranes of chromaffin granules and brain tissue samples; cited from earlier work
VMAT2 [1] = biological target: VMAT2 (Mus musculus, UniProt Q8BRU6); test: In vitro autoradiography of mouse brain sections; format: binding
[2] = Uptake in diabetic mice (FIG. 6); format: in vivo
VMAT2 [3] = biological target: VMAT2 (Rattus norvegicus, UniProt Q01827); test: Competition for [3H](±)TBZ binding in rat striatal homogenates; set-up: The basal forebrain regions of rat and mouse brains were then dissected; from tissue; host or cells: rat striatum / basal forebrain homogenate; details: [3H](±)TBZ 1.0-1.5 nM, Kd […] used for calculation
VMAT2 (Rattus norvegicus, UniProt Q01827), sequence (Q01827 whole entry): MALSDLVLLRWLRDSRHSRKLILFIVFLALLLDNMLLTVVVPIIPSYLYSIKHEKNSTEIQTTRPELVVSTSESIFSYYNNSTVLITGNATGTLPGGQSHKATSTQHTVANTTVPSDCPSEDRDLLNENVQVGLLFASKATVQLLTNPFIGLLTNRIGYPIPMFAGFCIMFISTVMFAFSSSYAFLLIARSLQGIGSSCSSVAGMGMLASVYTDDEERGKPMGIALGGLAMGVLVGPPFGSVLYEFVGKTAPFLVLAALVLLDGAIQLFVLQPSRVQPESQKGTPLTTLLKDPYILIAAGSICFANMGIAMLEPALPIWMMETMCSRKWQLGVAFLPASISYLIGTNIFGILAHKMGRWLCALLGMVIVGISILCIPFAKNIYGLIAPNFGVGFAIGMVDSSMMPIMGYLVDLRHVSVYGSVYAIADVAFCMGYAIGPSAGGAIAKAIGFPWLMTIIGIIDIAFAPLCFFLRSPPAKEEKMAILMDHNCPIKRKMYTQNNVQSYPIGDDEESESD

VMAT2 (Mus musculus, UniProt Q8BRU6), sequence (Q8BRU6 whole entry): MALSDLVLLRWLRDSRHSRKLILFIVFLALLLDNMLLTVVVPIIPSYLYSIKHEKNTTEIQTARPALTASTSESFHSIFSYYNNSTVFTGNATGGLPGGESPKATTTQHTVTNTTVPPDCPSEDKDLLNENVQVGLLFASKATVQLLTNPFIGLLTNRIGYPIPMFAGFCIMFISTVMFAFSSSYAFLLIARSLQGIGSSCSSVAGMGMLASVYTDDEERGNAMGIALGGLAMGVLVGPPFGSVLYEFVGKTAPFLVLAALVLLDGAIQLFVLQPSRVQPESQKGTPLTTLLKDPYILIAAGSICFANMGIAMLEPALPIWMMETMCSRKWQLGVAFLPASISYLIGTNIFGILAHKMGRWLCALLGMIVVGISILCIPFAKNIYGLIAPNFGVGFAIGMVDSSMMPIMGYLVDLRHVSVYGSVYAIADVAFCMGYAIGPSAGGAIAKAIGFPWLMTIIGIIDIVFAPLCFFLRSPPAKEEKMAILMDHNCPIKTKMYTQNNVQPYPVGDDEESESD

In the case of `COc1cc2c(cc1OC)C1CC(O)C(CC(C)C)CN1CC2` (stereo not shown) [[^3H]dihydro-TBZ, 2-hydroxy-3-(2-methylpropyl)-9,10-dimethoxy-1,3,4,6,7,11b-hexahydro-2H-benzo[a]quinolizine], the Kd (monoamine transporter) is given as 2 to 9 nM.
In the case of `COc1cc2c(cc1OCCCF)CCN1CC(CC(C)C)C(O)CC21` (racemic) [[^18F]6b], the “regional labeling in presence of 1 μM (±)TBZ” value (VMAT2 [1]) is reported as “completely eliminated”.
In the case of `COc1cc2c(cc1OCCCF)CCN1CC(CC(C)C)C(O)CC21` (stereo not drawn) [FP-(+)-DTBZ], the “uptake in diabetic mice” value [2] is reported as “reduced” and the Ki (VMAT2 [3]) is reported as 0.1 nM.

Source: patent publication US8562949B2, “Radiolabeled dihydrotetrabenazine derivatives and their use as imaging agents” (The Trustees of the University of Pennsylvania, priority 2006, dated 2013)
